For 19 compounds, mortality results are on record in US20250002476A1, “AZOLE COMPOUNDS FOR CONTROLLING INVERTEBRATE PESTS” (FMC Corporation, priority 2021, published 2025).

Common to all, as to type: in vivo
Data set [1] concerns Neotropical Brown Stink Bug (Euschistus heros (Fab)). The experiment in a line: Test H: control of Neotropical Brown Stink Bug on sprayed green bean pieces. As to conditions: sprayed at 250 ppm; 3rd instar nymphs; 5 days. Here is the method: (§1) Test compounds were formulated using a solution containing 10% acetone, 90% water and 300 ppm Activator 90@ non-ionic surfactant (Loveland Products, Loveland, Colorado, USA). The formulated compounds were applied in 1 mL of liquid through an atomized nozzle positioned 1.27 cm (0.5 inches) above the top of each test unit. Test compounds were sprayed at the rates indicated, and each test was replicated three times.
For evaluating control of Neotropical Brown Stink Bug (Euschistus heros (Fab)) through contact and/or systemic means, the test unit consisted of a petri dish with two, ˜2 cm pieces of green bean inside.
Test compounds were formulated and sprayed at 250, 50 and 10 ppm. After spraying of the formulated test compound, the test units were allowed to dry for 1 h before they were post-infested with 10 3rd instar nymphs. A fine mesh screen was secured to the petri dish, the test units were held for 5 days in a growth chamber at 28° C. and 65% relative humidity. Each test unit was then visually assessed for insect mortality after five days.

Data set [2] deals with silverleaf whitefly (Bemisia argentifolii (Bellows and Perring)). The experiment in a line: Test F: control of silverleaf whitefly on sprayed soybean plant. As to conditions: 288 h, pre-infested (oviposition), 12 days; for mortality at 250 ppm: sprayed at 250 ppm; for mortality at 50 ppm: sprayed at 50 ppm. Here is the method: as §1
For evaluating control of silverleaf whitefly (Bemisia argentifolii (Bellows and Perring)) through contact and/or systemic means, each test unit consisted of a small open container with a 5-7 day old soybean plant inside. This was pre-infested by placing test units into cages containing adult whiteflies so that oviposition on the leaves could occur. The adults were removed from the plants with an air-blast nozzle, and the test units were capped. The test units were then stored 2 to 3 days before spraying.
Test compounds were formulated and sprayed at 250 and 50 ppm. After spraying, the test units were maintained in a growth chamber for 12 days at 23° C. and 70% relative humidity. Each test unit was then visually assessed for insect mortality.

Data set [3] deals with Corn Planthopper (Peregrinus maidis (Ashmead)). Put plainly: Test B: control of Corn Planthopper on sprayed corn plant. As to conditions: 144 h, nymphs, 6 days; for mortality at 10 ppm: sprayed at 10 ppm; for mortality at 250 ppm: sprayed at 250 ppm; for mortality at 50 ppm: sprayed at 50 ppm. Here is the method:
as §1
For evaluating control of Corn Planthopper (Peregrinus maidis (Ashmead)) through contact and/or systemic means, the test unit consisted of a small open container with a 3-4-day-old corn (maize) plant inside. White sand was added to the top of the soil prior to application of the test compound.
Test compounds were formulated and sprayed at 250, 50 and 10 ppm. After spraying of the formulated test compound, the test units were allowed to dry for 1 h before they were post-infested with ˜15-20 nymphs (18-to-21-day-old). A black, screened cap was placed on the top of each test unit, and the test units were held for 6 days in a growth chamber at 22-24° C. and 50-70% relative humidity. Each test unit was then visually assessed for insect mortality.

In data set [4] the test system is cotton melon aphid (Aphis gossypii (Glover)). Put plainly: Test E: control of cotton melon aphid on sprayed okra plant. As to conditions: 144 h, pre-infested, 6 days; for mortality at 2 ppm: sprayed at 2 ppm; for mortality at 250 ppm: sprayed at 250 ppm; for mortality at 50 ppm: sprayed at 50 ppm. How it is done: as §1
For evaluating control of cotton melon aphid (Aphis gossypii (Glover)) through contact and/or systemic means, the test unit consisted of a small open container with a 5-day-old okra plant inside. This was pre-infested with 30-40 insects on a piece of leaf according to the cut-leaf method, and the soil of the test unit was covered with a layer of sand.
Test compounds were formulated and sprayed at 250, 50, 10 and 2 ppm. After spraying, the test units were maintained in a growth chamber for 6 days at 19° C. and 70% relative humidity. Each test unit was then visually assessed for insect mortality.

The subject of data set [5] is Green Peach Aphid (Myzus persicae (Sulzer)). The experiment in a line: Test D: control of Green Peach Aphid on sprayed radish plant. As to conditions: 144 h, pre-infested, 6 days; for mortality at 50 ppm: sprayed at 50 ppm; for mortality at 250 ppm: sprayed at 250 ppm. Here is the method: as §1
For evaluating control of Green Peach Aphid (Myzus persicae (Sulzer)) through contact and/or systemic means, the test unit consisted of a small open container with a 12-15-day-old radish plant inside. Prior to compound application, each test unit was pre-infested by placing on a leaf of the test plant 30-40 aphids on a piece of leaf excised from a culture plant (cut-leaf method). The aphids moved onto the test plant as the leaf piece desiccated. After pre-infestation, the soil of the test unit was covered with a layer of sand.
Test compounds were formulated and sprayed at 250 and 50 ppm. After spraying of the formulated test compound, each test unit was allowed to dry for 1 hour and then a black, screened cap was placed on top. The test units were held for 6 days in a growth chamber at 19-21° C. and 50-70% relative humidity. Each test unit was then visually assessed for insect mortality.

For data set [6], the system named is Potato Leafhopper (Empoasca fabae (Harris)). Put plainly: Test C: control of Potato Leafhopper on sprayed bean plant. As to conditions: 144 h, adults, 6 days; for mortality at 250 ppm: sprayed at 250 ppm. Here is the method: as §1
For evaluating control of Potato Leafhopper (Empoasca fabae (Harris)) through contact and/or systemic means, the test unit consisted of a small open container with a 5-6-day-old bean plant inside. White sand was added to the top of the soil, and one of the primary leaves was excised prior to application of the test compound.
Test compounds were formulated and sprayed at 250 and 50 ppm. After spraying of the formulated test compound, the test units were allowed to dry for 1 hour before they were post-infested with 5 potato leafhoppers (18-to-21-day-old adults). A black, screened cap was placed on the top of the test unit, and the test units were held for 6 days in a growth chamber at 20° C. and 70% relative humidity. Each test unit was then visually assessed for insect mortality.

Take `CCC#CCn1cc(-c2ccc(C)cc2)nn1` [Compound 18]: the mortality (in general, the percentage killed) in data set [1] is listed as “at least 50%”.

`CCC#CCn1nnc(-c2cc(F)c(F)c(F)c2)n1` [Compound 313, 2-(2-Pentyn-1-yl)-5-(3,4,5-trifluorophenyl)-2H-tetrazole]: the mortality at 250 ppm in data set [2] is at least 50%. The mortality at 10 ppm in data set [3] is at least 80%. In data set [4], the mortality at 2 ppm was at least 80%. The compound also came in with a mortality at 50 ppm in data set [5] of at least 80%.

Take `CCC#CCn1nnc(-c2ccc(Cl)c(F)c2)n1` [Compound 308, 5-(4-Chloro-3-fluorophenyl)-2-(2-pentyn-1-yl)-2H-tetrazole]: the mortality at 50 ppm in data set [2] was at least 50%; in data set [5], at least 80%. In data set [3], this compound gave a mortality at 250 ppm of at least 80%. The compound also came in with a mortality at 10 ppm in data set [4] (sprayed at 10 ppm) of at least 80%.

The compound `CCC#CCn1ncc(-c2ccc(Cl)cn2)n1` [Compound 141] displayed a mortality at 50 ppm in data set [2] of at least 50%. Also, the mortality at 250 ppm in data set [4] and in data set [5] was at least 80% each time.

In the case of `CCC#CCn1ncc(-c2ccc(F)nc2)n1` [Compound 159, 2-Fluoro-5-[2-(2-pentyn-1-yl)-2H-1,2,3-triazol-4-yl]pyridine], the mortality at 50 ppm in data set [3] and in data set [4] was at least 80% throughout. In addition, in data set [6], the mortality at 250 ppm was at least 80%.

In data set [6] (sprayed at 50 ppm), `CCC#CCn1cc(-c2ccc(F)nc2)nn1` [Compound 158] returned a mortality at 50 ppm of at least 80%. In data set [4], this compound returned a mortality at 250 ppm of at least 80%.

`CCC#CCn1nnc(-c2ccc3occc3c2)n1` [Compound 193, 5-(5-Benzofuranyl)-2-(2-pentyn-1-yl)-2H-tetrazole]: the mortality at 250 ppm in data set [2] is at least 50%; in data set [5] it was at least 80%. The mortality at 50 ppm in data set [3] and in data set [4] was at least 80% throughout.

Consider `CCC#CCn1ncc(-c2cncc(F)c2)n1` [Compound 155], for which the mortality at 50 ppm in data set [3] and in data set [4] was at least 80% in each case. Also, the mortality at 250 ppm in data set [6] and in data set [5] was at least 80% in each case.

With `COCC#CCn1nnc(-c2ccc(C(F)(F)F)cc2)n1` [Compound 300], the mortality at 250 ppm in data set [2] is at least 50%; in data set [4] it was at least 80%.

On to `CCC#CCn1nnc(-n2cc(Cl)cn2)n1` [Compound 306], for which the mortality at 250 ppm in data set [2] was at least 50%; in data set [3] it was at least 80%; in data set [5], at least 80%. Moreover, in data set [4], the mortality at 50 ppm was at least 80%.

With `CCC#CCn1nnc(-c2ccc(C(F)(F)F)c(Br)c2)n1` [Compound 325, 5-[3-Bromo-4-(trifluoromethyl)phenyl]-2-(2-pentyn-1-yl)-2H-tetrazole], the mortality at 50 ppm is at least 50% in data set [2], at least 80% in data set [4] and at least 80% in data set [5]. The mortality at 250 ppm in data set [3] was at least 80%.

With `CCC#CCn1nnc(-c2cc(F)cc(F)c2)n1` [Compound 65, 5-(3,5-difluorophenyl)-2-(2-pentyn-1-yl)-2H-tetrazole], the mortality at 250 ppm in data set [2] is at least 50%. Further, the mortality at 50 ppm in data set [3] and in data set [5] was at least 80% in each case. Also, the mortality at 2 ppm in data set [4] is at least 80%.

Consider `CCC#CCn1nnc(-c2ccc(F)cc2)n1` [Compound 41, 5-(4-fluorophenyl)-2-(2-pentyn-1-yl)-2H-tetrazole], for which the mortality at 250 ppm is at least 50% in data set [2] and at least 80% in data set [5]. In data set [3], this compound had a mortality at 10 ppm of at least 80%. The same compound returned a mortality at 50 ppm in data set [4] of at least 80%.

As to `CCC#CCn1nnc(-c2cc(OC)cc(C(F)(F)F)c2)n1` [Compound 286, 5-[3-Methoxy-5-(trifluoromethyl)phenyl]-2-(2-pentyn-1-yl)-2H-tetrazole], the mortality at 50 ppm was at least 50% in data set [2] and at least 80% in data set [4]. Moreover, the mortality at 250 ppm in data set [3] was at least 80%.

As to `CCC#CCn1nnc(-c2ccc(Br)c(Cl)c2)n1` [Compound 164, 5-(4-Bromo-3-chlorophenyl)-2-(2-pentyn-1-yl)-2H-tetrazole], the mortality at 50 ppm in data set [2] is at least 50%; in data set [4], at least 80%. The mortality at 250 ppm in data set [3] and in data set [5] was at least 80% in each case.

With `CCC#CCn1ncc(-c2ccc(Cl)nc2)n1` [Compound 157], the mortality at 250 ppm in data set [2] was at least 50%; in data set [5], at least 80%. The mortality at 50 ppm in data set [3] and in data set [4] was at least 80% throughout.

Take `CCC#CCn1ncc(-c2ccc(C(F)(F)F)cc2)n1` [Compound 103, 2-(2-Pentyn-1-yl)-4-[4-(trifluoromethyl)phenyl]-2H-1,2,3-triazole]: the figures for the mortality at 250 ppm in data set [2], in data set [6] and in data set [5] were at least 50%, at least 80% and at least 80%, respectively. Besides, the mortality at 50 ppm in data set [3] and in data set [4] was at least 80% in each case.

On to `CCC#CCn1nnc(-c2ccc(OC(F)F)cc2)n1` [Compound 311, 5-[4-(Difluoromethoxy)phenyl]-2-(2-pentyn-1-yl)-2H-tetrazole], for which the mortality at 50 ppm in data set [2] was at least 50%; in data set [3], at least 80%; in data set [4], at least 80%.

Regarding `CC(C)C#CCn1ncc(-c2ccc(C(F)(F)F)cc2)n1` [Compound 139], the mortality at 250 ppm in data set [3], in data set [6] and in data set [4] was at least 80% each time.
